Measurements: ChEMBL document CHEMBL1154115, “NO-glibenclamide derivatives: prototypes of a new class of nitric oxide-releasing anti-diabetic drugs” (Bioorg Med Chem, 2009)
pIC50: −log10 of the molar value. Calls of active or inactive are those of the source. The calls are words filed in the database; no cut-off is given here.

Legend:
Aorta = experiment: Vasorelaxant activity in endothelium-denuded Wistar rat thoracic aortic ring assessed as inhibition of KCl-induced contraction; type: functional, tissue-based
Platelet = experiment: Inhibition of ADP-induced platelet aggregation in human platelet-rich plasma at 100 uM treated 2 mins before ADP challenge by turbidimetric method; type: functional; set-up: scale not given: the % may be the effect or the level left
Liver = experiment: Induction of NO release in Wistar rat liver homogenate at 200 uM by amperometric detection method; type: functional, tissue-based
[1] = Induction of 20 mM glucose-stimulated insulin secretion in human pancreatic islet cells assessed as insulin stimulation index at 100 uM by immunoradiometric assay; type: functional
[2] = Induction of 20 mM glucose-stimulated insulin secretion in human pancreatic islet cells assessed as insulin stimulation index at 10 uM by immunoradiometric assay; type: functional
Rattus norvegicus = experiment: Hypoglycemic activity in streptozotocin-induced diabetic Wistar rat assessed as reduction in blood glucose AUC level at 10 mg/kg, ip measured for 2 hrs (Rvb= 45318 mg/dl/2 h); type: functional, organism-based; set-up: dose 10 mg/kg

Molecule `O=[N+]([O-])OCC(CO[N+](=O)[O-])O[N+](=O)[O-]` [NITROGLYCERIN] has an Emax (Aorta) of 98%, a pIC50 (Aorta) of 7.23 and an Activity (Platelet) of 28%. For the same molecule, the Activity (Liver) was 600 nM.
For `COc1ccc(Cl)cc1C(=O)NCCc1ccc(S(=O)(=O)NC(=O)NC2CCCCC2)cc1` [GLYBURIDE], the Activity [1] was 5.2, the Activity [2] was 4.3 and the Activity (Platelet) was 67%. For the same molecule, the AUC (Rattus norvegicus) was 33100 mg·min/dL and the Activity (Liver) was “inactive”.
With `COc1ccc(Cl)cc1C(=O)NCCc1ccc(S(=O)(=O)NC(=O)N[C@H]2CC[C@H](O)CC2)cc1` [4-TRANS-HYDROXY-GLYBENCLAMIDE] the Activity [1] was 8.2, the Activity [2] was 6 and the Activity (Platelet) was 76%. For the same molecule, the AUC (Rattus norvegicus) was 34500 mg·min/dL and the Activity (Liver) was “inactive”.
